Test results as given in patent US20090176841A1, “NOVEL 6-5 SYSTEM BICYCLIC HE[…] ITS PHAR[…]” (Sanwa Kagaku Kenkyusho Co., Ltd., priority 2006, published 2009).

What was measured:
recombinant human TRα = biological target: T1, recombinant human TRα (Homo sapiens, UniProt P10827); assay: biochemical; conditions: TR[…] (IC50, nM), displacement of 125I-T3 (0.16 nM)
T1 sequence (P10827 190-410 isoform P10827-2): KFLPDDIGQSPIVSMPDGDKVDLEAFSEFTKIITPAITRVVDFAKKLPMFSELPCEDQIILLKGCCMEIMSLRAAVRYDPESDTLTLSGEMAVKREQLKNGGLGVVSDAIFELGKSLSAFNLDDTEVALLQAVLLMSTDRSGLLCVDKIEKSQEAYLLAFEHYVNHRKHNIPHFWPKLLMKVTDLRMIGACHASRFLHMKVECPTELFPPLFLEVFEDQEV
Description: (§1) Thyroid Hormone Receptor Binding Test
(§2) (1) Preparation of Fused Protein Having Ligand Binding Region of Thyroid Hormone Receptor
(§3) Human TRα and human TRβ ligand binding domains were expressed in Escherichia coli as a fused protein (recombinant human TRα or recombinant human TRβ) having TRα and TRβ ligand binding domains at a C-terminus of His-Patch Thioredoxin using the His-Patch Thioredoxin fusing protein expressing system (Invitrogen).
(§4) A nucleotide sequence of a region corresponding to the fused protein was confirmed by DNA sequence analysis.
(§5) Escherichia coli by which the fused protein had been subjected to expression inducement were collected by a centrifugation method, and ground using ultrasound to prepare a ground cell liquid containing the fused protein. The ground cell liquid was centrifuged at 15000 rpm for about 30 minutes, and a solution containing the fused protein from the supernatant using a nickel chelating column was obtained. An NAP-10 column was replaced with a binding solution (20 mM, Tris-HCl, 0.15 M NaCl, 8% Glycerol, 0.1% BSA, 1 mM EDTA, 10 mM 2-melcaptethanol). The resulting binding solution containing the fused protein was frozen and stored at −70° C. or lower.
(§6) (2) Binding Affinity for Thyroid Hormone Receptor
(§7) This binding solution (60 μL) was added to all wells of a 96-well plate (MILLIPORE MultiScreen-HV, Cat. No. MANVN4550, Lot. No. F4SN86613). […] 80 μL of SephadexG25 was added to each well of MultiScreen-HV (MILLIPORE, Cat. No. MANVN4550, Lot. No. F4SN86613), the binding solution was added to sufficiently swell, and this was centrifuged at 600×g for 1 minute to prepare a column of SephadexG25. […] Again, 25 μL untreated binding solution was overlaid on the SephadexG25 column, and this was immediately centrifuged at 600×g for 1 minute. […] As an amount of recombinant human TRα or recombinant human TRβ used in the present test, an amount by which proper radioactivity is obtained in a range where an addition amount of the receptor and an amount of the complex in the above test system, was used.
(§8) This was divided by the total complex amount to calculate a binding rate as the following equation:
(§9) Binding rate=remaining complex amount/total complex amount

recombinant human TRβ = biological target: T2, recombinant human TRβ (Homo sapiens, UniProt P10828); assay: biochemical; conditions: TR[…] (IC50, nM), displacement of 125I-T3 (0.16 nM)
T2 sequence (P10828 244-461): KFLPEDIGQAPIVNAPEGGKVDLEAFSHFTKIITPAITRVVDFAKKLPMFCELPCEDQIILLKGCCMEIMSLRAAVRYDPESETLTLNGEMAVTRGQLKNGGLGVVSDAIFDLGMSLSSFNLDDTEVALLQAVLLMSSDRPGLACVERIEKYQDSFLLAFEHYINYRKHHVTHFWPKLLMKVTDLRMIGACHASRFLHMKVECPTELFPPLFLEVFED
Description: as §1, §2, §3, §4, §5, §6, §7, §8, §9

SMILES	IC50 (recombinant human TRα)	IC50 (recombinant human TRβ)
CCOC(=O)C(=O)Nc1ccc(C)c2c1ccn2Cc1ccc(O)c(C(O)c2ccc(F)cc2)c1 (centres unmarked) [Example 56, Ethyl N-(1-{3-[(4-fluorophenyl)hydroxymethyl]-4-hydroxybenzyl}-7-methyl-1H-indol-4-yl)oxamate]	480 nM	84 nM
Cc1ccc(NC(=O)Cc2nnn[nH]2)c2ccn(Cc3ccc(O)c(C(C)C)c3)c12 [Example 42]	8200 nM	150 nM
Cc1ccc(NC(=O)C(F)C(=O)O)c2cc(C)n(Cc3ccc(O)c(C(C)C)c3)c12 (centres unmarked) [Example 88]	120 nM	13 nM
Cc1c(C)n(Cc2ccc(O)c(C(C)C)c2)c2cccc(NC(=O)C(=O)O)c12 [Example 83]	85 nM	27 nM
CC(C)c1cc(Cn2ccc3c(NC(=O)CC(=O)O)ccc(Cl)c32)ccc1O [Example 78]	230 nM	36 nM
Cc1ccc(NC(=O)CC(=O)O)c2cc(C)n(Cc3ccc(O)c(C(O)c4ccc(F)cc4)c3)c12 (single isomer, unassigned; (+)) [Example 130, (+)-N-(1-{3-[(4-fluorophenyl)hydroxymethyl]-4-hydroxybenzyl}-2,7-dimethyl-1H-indol-4-yl)malonamic acid]	5200 nM	150 nM
CCCc1cc(Cn2c(C)cc3c(NC(=O)C(=O)O)ccc(C)c32)ccc1O [Example 116]	52 nM	9.2 nM
